Experimental data taken from ChEMBL document CHEMBL1201862, “PubChem BioAssay data set” (2004).
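Tested at 5 concentrations; 48 h exposure; 96-well plates; endpoints linearly interpolated, else capped at highest concentration. At the GI50, growth is halved.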 The source made the active and inactive calls. Cut-off read from the data, not from the text of the source: active = GI50 up to about 1.1 µM and inactive = higher. Numbered stars: 1 amine (or outer) side, 2 acyl side, 3 side chain; on linkers, the order of the positions; unused ones are H or OH. Square brackets hold non-standard residues; d marks the D form. Peptide text beside a SMILES is read from it. X55 = CC[C@H](C)[C@H](OC(=O)[C@@H](C)[C@@H](CC)N[*:1])C(=O)[*:2]; X31 = C[C@H](N[*:1])C(=O)C(C)(C)C(=O)[*:2]; NMeY = CN[C@@H](Cc1ccc(O)cc1)C(=O)O; NMeL = CN[C@@H](CC(C)C)C(=O)O; NMeV = CN[C@H](C(=O)O)C(C)C

Key:
Assay in all cases: NCI anticancer screen, dose series, 48 h
ACHN = test system: ACHN
SW-620 = test system: SW-620
T47D = test system: T47D
NCI-H460 = test system: NCI-H460
A549 = test system: A549
KM12 = test system: KM12
SK-MEL-28 = test system: SK-MEL-28
MDA-MB-231 = test system: MDA-MB-231
MDA-MB-435 = test system: MDA-MB-435
SNB-19 = test system: SNB-19
OVCAR-8 = test system: OVCAR-8
SF-268 = test system: SF-268
SN12C = test system: SN12C
TK-10 = test system: TK-10
NCI/ADR-RES = test system: NCI/ADR-RES
SF-539 = test system: SF-539
RPMI-8226 = test system: RPMI-8226
U-251 = test system: U-251
UO-31 = test system: UO-31
CCRF-CEM = test system: CCRF-CEM

Row | SMILES | GI50 (ACHN) | GI50 (SW-620) | GI50 (T47D) | GI50 (NCI-H460) | GI50 (A549) | GI50 (KM12) | GI50 (SK-MEL-28) | GI50 (MDA-MB-231) | GI50 (MDA-MB-435) | GI50 (SNB-19) | GI50 (OVCAR-8) | GI50 (SF-268) | GI50 (SN12C) | GI50 (TK-10) | GI50 (NCI/ADR-RES) | GI50 (SF-539) | GI50 (RPMI-8226) | GI50 (U-251) | GI50 (UO-31) | GI50 (CCRF-CEM)
1 | O=c1cc(-c2ccc(O)c(O)c2)oc2cc(O[C@H]3O[C@H](CO)[C@@H](O)[C@H](O)[C@H]3O)cc(O)c12 | 65.5 µM (inactive) | > 100 µM (inactive) | 89.1 µM (inactive) | 34.8 µM (inactive) | 79.8 µM (inactive) | 38 µM (inactive) | 59.3 µM (inactive) | > 100 µM (inactive) | > 100 µM (inactive) | 75.9 µM (inactive) | > 100 µM (inactive) | 62.1 µM (inactive) | > 100 µM (inactive) | > 100 µM (inactive) | > 100 µM (inactive) | > 100 µM (inactive) | 73.5 µM (inactive) | > 100 µM (inactive) | 11.2 µM (inactive) | 
2 | O=C(Nc1sccc1S(=O)(=O)c1ccccc1)c1ccccc1 | > 100 µM (inactive) | > 84.3 µM (inactive) | > 100 µM (inactive) | > 31.6 µM (inactive) | > 100 µM (inactive) | > 100 µM (inactive) | > 100 µM (inactive) | > 36.1 µM (inactive) | 3.69 µM (inactive) | > 100 µM (inactive) | > 100 µM (inactive) | > 100 µM (inactive) | > 100 µM (inactive) | > 100 µM (inactive) | > 100 µM (inactive) | > 100 µM (inactive) | > 100 µM (inactive) | > 100 µM (inactive) | > 100 µM (inactive) | 
3 | Cc1oc2nc(N(C)C)n3c(C)nnc3c2c1C | > 100 µM (inactive) | > 100 µM (inactive) | > 100 µM (inactive) |  | > 100 µM (inactive) | > 100 µM (inactive) | > 100 µM (inactive) | > 100 µM (inactive) | > 100 µM (inactive) | > 100 µM (inactive) | > 100 µM (inactive) | > 100 µM (inactive) | > 100 µM (inactive) | > 100 µM (inactive) | > 100 µM (inactive) | > 100 µM (inactive) | > 100 µM (inactive) | > 100 µM (inactive) | > 100 µM (inactive) | > 100 µM (inactive)
4 | COC(=O)CN1CCN(c2cccc3c2CCCC3)CC1 | 72.9 µM (inactive) | > 100 µM (inactive) | 98.2 µM (inactive) | 46.8 µM (inactive) | 69.5 µM (inactive) | 43.9 µM (inactive) |  | 71.9 µM (inactive) | 40.5 µM (inactive) | > 100 µM (inactive) | > 100 µM (inactive) |  | 56 µM (inactive) | 93.8 µM (inactive) | 24.5 µM (inactive) | > 100 µM (inactive) | 25.1 µM (inactive) | > 100 µM (inactive) | 92.3 µM (inactive) | 47.9 µM (inactive)
5 | CC(=O)OCCn1c(Cc2ccc(Cl)cc2)nn(C(C)=O)c1=O | > 100 µM (inactive) | > 100 µM (inactive) | > 100 µM (inactive) | > 100 µM (inactive) | > 100 µM (inactive) | > 100 µM (inactive) | > 100 µM (inactive) | > 100 µM (inactive) | > 100 µM (inactive) | > 100 µM (inactive) | > 100 µM (inactive) | > 100 µM (inactive) | > 100 µM (inactive) | > 100 µM (inactive) | > 100 µM (inactive) | > 100 µM (inactive) | > 100 µM (inactive) | > 100 µM (inactive) | > 100 µM (inactive) | > 100 µM (inactive)
6 | O=S(=O)(O)c1ccc(O)c2ncc(Cl)cc12 | > 100 µM (inactive) | > 100 µM (inactive) | > 100 µM (inactive) | > 100 µM (inactive) | > 100 µM (inactive) | > 100 µM (inactive) | > 100 µM (inactive) | > 100 µM (inactive) | > 100 µM (inactive) | > 100 µM (inactive) | > 100 µM (inactive) |  | > 100 µM (inactive) |  | > 100 µM (inactive) | > 100 µM (inactive) | 51.1 µM (inactive) | > 100 µM (inactive) | > 100 µM (inactive) | > 100 µM (inactive)
7 | O=c1nc2n(cc1/C=C\Br)C1CC(O)C(CO2)O1 (stereo unspecified) | > 100 µM (inactive) | > 100 µM (inactive) | > 100 µM (inactive) | > 100 µM (inactive) | > 100 µM (inactive) | > 100 µM (inactive) | > 100 µM (inactive) | > 100 µM (inactive) | > 100 µM (inactive) | > 100 µM (inactive) | > 100 µM (inactive) | > 100 µM (inactive) | > 100 µM (inactive) | > 100 µM (inactive) | > 100 µM (inactive) | 38.4 µM (inactive) | > 100 µM (inactive) | > 100 µM (inactive) | > 100 µM (inactive) | 36.7 µM (inactive)
8 | CSc1ncc2c(n1)-c1ccccc1OC2N1CCCC1 (stereo unspecified) | 60.8 µM (inactive) | 94.8 µM (inactive) | 35.8 µM (inactive) | > 100 µM (inactive) | > 100 µM (inactive) | > 100 µM (inactive) |  | > 100 µM (inactive) | > 100 µM (inactive) | > 100 µM (inactive) | > 100 µM (inactive) | > 100 µM (inactive) | 71 µM (inactive) | 44.1 µM (inactive) | 93.8 µM (inactive) | 84.5 µM (inactive) | 50.9 µM (inactive) | 68.5 µM (inactive) | 42.4 µM (inactive) | 58.5 µM (inactive)
9 | NC1=C(N2CCOCC2)C(=O)NC2=N/C(=C\c3ccccc3O)C(=O)N21 | > 100 µM (inactive) | > 100 µM (inactive) | 51.2 µM (inactive) | 89.3 µM (inactive) | > 100 µM (inactive) | > 100 µM (inactive) | > 100 µM (inactive) | > 100 µM (inactive) | > 100 µM (inactive) | > 100 µM (inactive) | > 100 µM (inactive) | > 100 µM (inactive) | > 100 µM (inactive) | > 100 µM (inactive) | > 100 µM (inactive) | > 100 µM (inactive) | 20.5 µM (inactive) | > 100 µM (inactive) | > 100 µM (inactive) | > 100 µM (inactive)
10 | Cc1nc(-c2ccc([N+](=O)[O-])cc2)cn2c1nc1ccccc12 |  | > 100 µM (inactive) | 8.81 µM (inactive) | > 100 µM (inactive) | > 100 µM (inactive) | > 100 µM (inactive) | > 100 µM (inactive) | > 100 µM (inactive) | > 100 µM (inactive) | 65.8 µM (inactive) | > 100 µM (inactive) | > 100 µM (inactive) | > 100 µM (inactive) | 97.5 µM (inactive) | > 100 µM (inactive) | > 100 µM (inactive) | > 100 µM (inactive) | 40.2 µM (inactive) | > 100 µM (inactive) | > 100 µM (inactive)
11 | CC1CN=C(Nc2cccc(F)c2)S1 (stereo unspecified) | > 100 µM (inactive) | > 100 µM (inactive) | > 100 µM (inactive) |  | > 100 µM (inactive) | > 100 µM (inactive) | > 100 µM (inactive) | 3.99 µM (inactive) | > 100 µM (inactive) | > 100 µM (inactive) | > 100 µM (inactive) | > 100 µM (inactive) | > 100 µM (inactive) | > 100 µM (inactive) | > 100 µM (inactive) | > 100 µM (inactive) | > 100 µM (inactive) | > 100 µM (inactive) | > 100 µM (inactive) | 91 µM (inactive)
12 | COC(=O)/C(C#N)=C(\Nc1ccccc1)N1CCCCC1 | > 100 µM (inactive) | > 100 µM (inactive) | > 100 µM (inactive) | > 100 µM (inactive) | > 100 µM (inactive) |  | > 100 µM (inactive) | > 100 µM (inactive) | > 100 µM (inactive) | > 100 µM (inactive) | > 100 µM (inactive) | > 100 µM (inactive) | > 100 µM (inactive) | > 100 µM (inactive) | > 100 µM (inactive) | > 100 µM (inactive) | > 100 µM (inactive) | > 100 µM (inactive) | > 100 µM (inactive) | 
13 | CC1=C2NCN(C)N=C2C(C#N)(C#N)C1(C#N)C#N | 17.9 µM (inactive) | 10.2 µM (inactive) | 21.7 µM (inactive) |  | > 78.5 µM (inactive) | > 65.9 µM (inactive) | 21.6 µM (inactive) | 19.6 µM (inactive) | 21.7 µM (inactive) | 36.9 µM (inactive) | 27 µM (inactive) | 32.2 µM (inactive) | 19.5 µM (inactive) | 16.4 µM (inactive) | 28.6 µM (inactive) | 27 µM (inactive) | 10.9 µM (inactive) | 28.9 µM (inactive) | 18.4 µM (inactive) | 2.22 µM (inactive)
14 | CC[C@H](C)[C@@H]1OC(=O)[C@@H](C)[C@@H](CC)NC(=O)[C@H](C)NC(=O)C(C)(C)C(=O)[C@H](C)NC(=O)[C@H](Cc2ccc(OC)cc2)N(C)C(=O)[C@H](C(C)C)N(C)C(=O)CNC(=O)[C@H](CC(C)C)N(C)C(=O)CNC1=O [DOLASTATIN 11] (cyclo(A[X55]G[NMeL]G[NMeV][NMeY](Me)[X31])) | 0.0327 µM (active) | 0.286 µM (active) | 0.448 µM (active) | 0.00115 µM (active) | 0.0175 µM (active) | 0.4 µM (active) |  | 0.0632 µM (active) | 0.0603 µM (active) | 0.185 µM (active) | 0.101 µM (active) | 0.082 µM (active) | 0.194 µM (active) | 0.0713 µM (active) | 0.802 µM (active) | 0.0122 µM (active) | 0.115 µM (active) | 0.0158 µM (active) | 0.169 µM (active) | 0.0274 µM (active)
